# Assay results published in patent EP3428169A1, “6,6A-DIHYDRO FURO[3,2-B]FURAN-2-(5H)ONE DERIVATIVES, THEIR PREPARATION AND USE FOR TREATING TUMORS” (Universita' Della Calabria, priority 2017, dated 2019).
# Legend:
# MCF-7 cells = assay: Cell viability assay: MTT test; format: cell-based, human; conditions: for minimal effective concentration: Homo sapiens, MCF7, 72 h treatment, tested at 1, 5, 10, 20, 40 µM, p<0.05 vs untreated, read-out: concentration(s) giving significant reduction in the viability of MCF-7 cells
# MDA-MB-231 cells = assay: Cell viability assay: MTT test; format: cell-based; conditions: for minimal effective concentration: Homo sapiens, MDA-MB-231, 72 h treatment, tested at 1, 5, 10, 20, 40 µM, p<0.05 vs untreated, read-out: concentration(s) giving significant reduction in the viability of MDA-MB-231 cells
# MDA-MB-468 cells = assay: Cell viability assay: MTT test; format: cell-based; conditions: for minimal effective concentration: Homo sapiens, MDA-MB-468, 72 h treatment, tested at 1, 5, 10, 20, 40 µM, p<0.05 vs untreated, read-out: concentration(s) giving significant reduction in the viability of MDA-MB-468 cells
# MCF-10A cells = assay: Cell viability assay: MTT test, non-tumour cells; format: cell-based, human; conditions: 72 h treatment; for reduction in cell viability of MCF-10A cells (in words): 1-40 µM; for concentration(s) giving inhibitory effect on viability of MCF-10A cells: tested at 1, 5, 10, 20, 40 µM
# Protocol: (§1) All cell lines were obtained from the American Type Culture Collection (ATCC, Manassas, VA, USA). The human mammary adenocarcinoma cells (MCF-7) were cultured in DMEM-F12 (Dulbecco's Modified Eagle's Medium (DME) and Ham's F-12 Nutrient Mixture) containing 5% newborn calf serum (NCS), 1% glutamine, 1% penicillin/streptomycin (Sigma-Aldrich, Milan, Italy). The TNBC cells (MDA-MB-231 and MDA-MB-468) were cultured in DMEM-F12 containing 10% heat-inactivated foetal bovine serum (FBS), 1% glutamine, 1% penicillin/streptomycin (Sigma-Aldrich, Milan, Italy). The 3T3L- cells 1 (immortalised mouse fibroblasts) were cultured in DMEM (Dulbecco's Modified Eagle's medium) containing 10% heat-inactivated foetal bovine serum (FBS) and 1% penicillin/streptomycin (Sigma-Aldrich, Milan, Italy). The human mammary epithelial cells MCF-10A were maintained in DMEM-F12 with 5% horse serum (HS), 1% glutamine, 1% penicillin/streptomycin, 5 µg/ml of insulin, 0.25 mg/ml of hydrocortisone, 20 ng/ml of hEGF (human epidermal growth factor) and 0.05 mg/ml of cholera enterotoxin (Sigma-Aldrich, Milan, Italy).
# (§2) All cell lines were maintained at 37°C in a 5% CO2 humidified atmosphere and periodically screened for mycoplasma contamination.
# (§3) Cell viability was evaluated using a colorimetric assay which exploits the conversion, by the mitochondrial enzyme succinate dehydrogenase (SDH), of the bromide reagent of 3-(4,5-dimethylthiazol-2-il)-2,5-diphenyltetrazole (MTT) (Sigma-Aldrich, Milan, Italy) into crystals of a product called formazan (blue-coloured).
# (§4) The cells were seeded in 48-well plates (25,000 cells/well), cultured for 72h in a complete medium before being treated for 72h with different doses (1, 5, 10, 20, 40 µM) of compounds A1, A2, A3, A4 and A5. At the end of the treatment the cells were incubated in darkness for 3h with 50 µl of a solution of MTT in PBS (2 mg/ml). The MTT solution was then carefully removed and the formazan salts that had formed were solubilised by adding 200 µl of DMSO (dimethyl sulphoxide) (Sigma-Aldrich, Milan, Italy), which imparts a pinkish colour to the solution. The coloured product was detected with the spectrophotometric method, by reading absorbance at the wavelength of 570 nm.
# (§5) Cell viability was evaluated with the MTT colorimetric assay as described above.
# 3T3-L1 cells = assay: Cell viability assay: MTT test, non-tumour cells; format: cell-based, mouse; conditions: 72 h treatment; for reduction in cell viability of 3T3-L1 cells (in words): 1-40 µM; for concentration(s) giving inhibitory effect on viability of 3T3-L1 cells: tested at 1, 5, 10, 20, 40 µM
# Protocol: as §1, §2, §3, §4, §5
# parp-1 protein = assay: Western blot analysis of cleavage/inactivation of parp-1; format: cell-based, human; conditions: 20 µM, 48h
# Protocol: The MCF-7, MDA-MB-231 and MDA-MB-468 cells were cultured in a complete medium for 72h in 60 mm plates (1 x 10^6 cells) before being treated for 48h with compound A4 (20 µM). After the treatment the cells were lysed in ice with RIPA (Radio-Immune Precipitation Assay) buffer (50 mM Tris HCI, pH 8.0, 150 mM NaCl, 1% NP-40, 0.5% sodium deoxycholate, 0.1% SDS, sodium dodecyl sulphate), containing protease inhibitors (1 mM phenylmethylsulphonyl fluoride (PMSF), 1mM sodium orthovanadate, 20 µM aprotinin, 20 µM leupeptin) for protein extraction. The lysates were maintained under ice for 10 minutes, then centrifuged for 10 minutes at 13000 rpm at 4°C. The protein content present in the supernatant was determined spectrophotometrically using the Bradford method. The proteins were separated, based on their molecular weight, in a sodium dodecyl sulphate-polyacrylamide gel (12%) (SDS-PAGE) and then transferred onto a nitrocellulose membrane. […]
# In order to be able to visualise the interaction between the primary antibody and the protein of interest, the membranes were incubated for 1 hour at room temperature, after washing with TBS-T 1X three times in order to remove any traces of the primary antibody, with a specific secondary antibody conjugated to the enzyme horseradish peroxidase (HRP) and directed against the constant portion of the primary antibody. […] In order to normalise the result, the various membranes were hot stripped for 30 minutes at 50°C with a stripping buffer (62.5 mM Tris-HCI pH 6.7, 2% SDS, 100mM β-mercaptoethanoi) and re-incubated overnight with the antibody anti-glyceraldehyde 3-phosphate dehydrogenase (GAPDH) (1: 1000) (Santa Cruz Biotechnology, Santa Cruz, CA, USA) used as a control for the quantities of proteins loaded.
# bcl-2 protein = assay: Western blot analysis of expression of anti-apoptotic bcl-2; format: cell-based, human; conditions: 20 µM, 48h
# Protocol: (§6) A further confirmation of the ability of the compound of formula A4 to induce the death, by apoptosis, of MCF-7, MDA-MB231 and MDA-MB468 tumour cells was given by the evaluation, through western blot analysis, of its effect on the expression of the anti-apoptotic bcl-2 protein and on the appearance of cytochrome c in the cytosolic compartment.
# (§7) The cells were cultured in a complete medium for 72 h in 60 mm plates (1 x 10^6 cells) before being treated for 48h with compound A4 (20 µM) in order to evaluate the protein expression of bcl-2 and the expression of the cytochrome c present in the cytosolic protein fraction.
# For an analysis of the protein expression of bcl-2, after treatment the cells were lysed in ice with RIPA (Radio-Immune Precipitation Assay) buffer (50 mM Tris HCI, pH 8.0, 150 mM NaCl, 1% NP-40, 0.5% sodium deoxycholate, 0.1% SDS, sodium dodecyl sulphate), containing protease inhibitors (1 mM phenylmethylsulphonyl fluoride (PMSF), 1mM sodium orthovanadate, 20 µM aprotinin, 20 µM leupeptin) for protein extraction. The lysates were maintained under ice for 10 minutes, then centrifuged for 10 minutes at 13000 rpm at 4°C. The protein content present in the supernatant was determined spectrophotometrically using the Bradford method. The proteins were separated, based on their molecular weight, in a sodium dodecyl sulphate-polyacrylamide gel (12%) (SDS-PAGE) and then subjected to a western blot analysis as described above, using a specific primary anti-bcl-2 antibody (1:500) (Santa Cruz Biotechnology, Santa Cruz, CA, USA).
# cytochrome c = assay: Western blot analysis of cytochrome c in the cytosolic protein fraction; format: cell-based, human; conditions: 20 µM, 48h
# Protocol: as §6, §7
# For the purpose of analysing the protein expression of the cytochrome c present in the cytosolic fraction, after treatment the cells were collected by centrifugation at 2500 rpm for 10 minutes at 4°C. The pellets were resuspended in 50 µl of sucrose buffer (250 mM sucrose, 10 mM Hepes, 10 mM KCl, 1.5 mM MgCl2, 1 mM EDTA, 1 mM EGTA) (Sigma-Aldrich, Milan, Italy) containing 20µM of aprotinin, 20 µM of leupeptin, 1mM of PMSF and 0.05% of digitonin (Sigma-Aldrich, Milan, Italy).
# The cells were incubated for 20 minutes at 4°C and then centrifuged at 13000 rpm for 15 minutes at 4°C. The protein content present in the supernatant was determined spectrophotometrically using the Bradford method. The proteins were separated, based on their molecular weight, in a sodium dodecyl sulphate-polyacrylamide gel (15%) (SDS-PAGE) and then subjected to a western blot analysis as described above, using a specific primary anti-cytochrome c antibody (1:1000) (Santa Cruz Biotechnology, Santa Cruz, CA, USA).
structure (smiles),measurement,setting,value
"CC1(C)CC2(C)OC(=O)C(c3ccccc3)=C2O1 (stereo not shown) [Compound A1, 5,5,6a-trimethyl-3-phenyl-6,6a-dihydrofuro[3,2-b]furan-2(5H)-one]",minimal effective concentration,MCF-7 cells,≥ 10 µM
same,minimal effective concentration,MDA-MB-231 cells,≥ 10 µM
same,minimal effective concentration,MDA-MB-468 cells,≥ 5 µM
same,reduction in cell viability of MCF-10A cells (in words),MCF-10A cells,more substantial
same,concentration(s) giving inhibitory effect on viability of MCF-10A cells,MCF-10A cells,≥ 20 µM
same,reduction in cell viability of 3T3-L1 cells (in words),3T3-L1 cells,more substantial
same,concentration(s) giving inhibitory effect on viability of 3T3-L1 cells,3T3-L1 cells,40 µM
"CC1(C)CC2(C)OC(=O)C([Si](C)(C)C)=C2O1 (stereo not shown) [Compound A2, 5,5,6a-trimethyl-3-(trimethylsilyl)-6,6a-dihydrofuro[3,2-b]furan-2(5H)-one]",minimal effective concentration,MCF-7 cells,≥ 1 µM
same,minimal effective concentration,MDA-MB-231 cells,≥ 1 µM
same,minimal effective concentration,MDA-MB-468 cells,≥ 1 µM
same,reduction in cell viability of MCF-10A cells (in words),MCF-10A cells,modest
same,concentration(s) giving inhibitory effect on viability of MCF-10A cells,MCF-10A cells,≥ 5 µM
same,reduction in cell viability of 3T3-L1 cells (in words),3T3-L1 cells,modest
same,concentration(s) giving inhibitory effect on viability of 3T3-L1 cells,3T3-L1 cells,≥ 20 µM
"CC12CCOC1=C([Si](C)(C)C)C(=O)O2 (stereo not shown) [Compound A3, 6a-methyl-3-(trimethylsilyl)-6,6a-dihydrofuro[3,2-b]furan-2(5H)-one]",minimal effective concentration,MCF-7 cells,≥ 10 µM
same,minimal effective concentration,MDA-MB-231 cells,≥ 5 µM
same,minimal effective concentration,MDA-MB-468 cells,≥ 5 µM
same,reduction in cell viability of MCF-10A cells (in words),MCF-10A cells,more substantial
same,concentration(s) giving inhibitory effect on viability of MCF-10A cells,MCF-10A cells,≥ 10 µM
same,reduction in cell viability of 3T3-L1 cells (in words),3T3-L1 cells,more substantial
same,concentration(s) giving inhibitory effect on viability of 3T3-L1 cells,3T3-L1 cells,40 µM
"CC1(C)CC2(c3ccccc3)OC(=O)C([Si](C)(C)C)=C2O1 (stereo not shown) [Compound A4, 5,5-dimethyl-6a-phenyl-3-(trimethylsilyl)-6,6a-dihydrofuro[3,2-b]furan-2(5H)-one]",minimal effective concentration,MCF-7 cells,1 to 40 µM
same,minimal effective concentration,MDA-MB-231 cells,10 to 40 µM
same,minimal effective concentration,MDA-MB-468 cells,10 to 40 µM
same,reduction in cell viability of MCF-10A cells (in words),MCF-10A cells,not influenced
same,reduction in cell viability of 3T3-L1 cells (in words),3T3-L1 cells,not influenced
same,cleavage of the parp-1 protein,parp-1 protein; MCF-7 cells,the cleaved form of the parp-1 protein may be seen
same,cleavage of the parp-1 protein,parp-1 protein; MDA-MB-231 cells,the cleaved form of the parp-1 protein may be seen
same,cleavage of the parp-1 protein,parp-1 protein; MDA-MB-468 cells,the cleaved form of the parp-1 protein may be seen
same,expression of bcl-2,bcl-2 protein; MCF-7 cells,decreasing the expression of bcl-2
same,expression of bcl-2,bcl-2 protein; MDA-MB-231 cells,decreasing the expression of bcl-2
same,expression of bcl-2,bcl-2 protein; MDA-MB-468 cells,decreasing the expression of bcl-2
same,level of cytochrome c in the cytosolic fraction,cytochrome c; MCF-7 cells,increased to a significant degree
same,level of cytochrome c in the cytosolic fraction,cytochrome c; MDA-MB-231 cells,increased to a significant degree
same,level of cytochrome c in the cytosolic fraction,cytochrome c; MDA-MB-468 cells,increased to a significant degree
"CC1(C)CC2(c3ccccc3)OC(=O)C=C2O1 (stereo not shown) [Compound A5, 5,5-dimethyl-6a-phenyl-6,6a-dihydrofuro[3,2-b]furan-2(5H)-one]",effect on the viability of MCF-7 cells (in words),"MCF-7 cells; 72 h treatment, 1-40 µM",modest but significant effect
same,minimal effective concentration,MCF-7 cells,5 to 40 µM
same,effect on the viability of MDA-MB-231 cells (in words),"MDA-MB-231 cells; 72 h treatment, 1-40 µM",modest but significant effect
same,minimal effective concentration,MDA-MB-231 cells,20 to 40 µM
same,effect on the viability of MDA-MB-468 cells (in words),"MDA-MB-468 cells; 72 h treatment, 1-40 µM",slightly more effective
same,minimal effective concentration,MDA-MB-468 cells,10 to 40 µM
same,reduction in cell viability of MCF-10A cells (in words),MCF-10A cells,not influenced
same,reduction in cell viability of 3T3-L1 cells (in words),3T3-L1 cells,not influenced
